Assay results from patent US8420823B2, “Long-chain fatty acyl elongase inhibitor comprising arylsulfonyl derivative as active ingredient” (MSD K.K., priority 2008, dated 2013).

These compounds were tested against T1, human LCE (Homo sapiens, UniProt Q9H5J4) (assay: LCE enzyme activity-inhibitory test). Details: [14C]-malonyl CoA / palmitoyl CoA substrate, 37° C., 90 minutes.
T1 sequence (Q9H5J4 1-265): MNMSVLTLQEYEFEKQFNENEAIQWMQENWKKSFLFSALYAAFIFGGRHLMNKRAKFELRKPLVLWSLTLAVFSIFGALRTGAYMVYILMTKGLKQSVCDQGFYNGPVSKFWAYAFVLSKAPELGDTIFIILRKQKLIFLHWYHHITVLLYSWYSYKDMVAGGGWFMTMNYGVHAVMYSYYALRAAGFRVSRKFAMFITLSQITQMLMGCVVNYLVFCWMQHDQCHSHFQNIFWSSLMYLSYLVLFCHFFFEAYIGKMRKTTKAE
Type: biochemical
Method in brief: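 Human LCE (100 μg/mL in enzyme solution) was incubated 90 min at 37 °C in 100 mM potassium phosphate pH 6.5 with palmitoyl CoA, malonyl CoA, [14C]-malonyl CoA, rotenone and fatty acid-free BSA. Acid-stopped, hydrolyzed products were captured on GF/C filters and counted by scintillation. Inhibition was calculated against DMSO control.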

Structure (SMILES)	IC50 [nM]
CC(C)c1ccc(NC(=O)c2cccc(S(=O)(=O)N3[C@H](C)CCC[C@@H]3C)c2)cc1 [Example 31, 3-{[(2R,6S)-2,6-dimethylpiperidin-1-yl]sulfonyl}-N-(4-isopropylphenyl)benzamide]	2800
O=C(N[C@H]1CCCc2ccccc21)c1cccc(S(=O)(=O)N2CCCCC2)c1 [Example 83, 3-(Piperidin-1-ylsulfonyl)-N-[(1S)-1,2,3,4-tetrahydronaphthalen-1-yl]benzamide]	5000
CC(C)Oc1ccc(NC(=O)c2cccc(S(=O)(=O)NC(C3CC3)C3CC3)c2)cc1 [Example 6, 3-{[(dicyclopropylmethyl)amino]sulfonyl}-N-(4-isopropoxyphenyl)benzamide]	1100
COc1cccnc1NC(=O)c1cccc(S(=O)(=O)N2CCOCC2)c1 [Example 47, N-(3-methoxypyridin-2-yl)-3-(morpholin-4-ylsulfonyl)benzamide]	1400
COc1ccccc1NC(=O)c1cccc(S(=O)(=O)c2ccccc2)c1 [Example 134, N-(2-methoxyphenyl)-3-(phenylsulfonyl)benzamide]	420
COc1cccnc1NC(=O)c1cccc(S(=O)(=O)N2CCCC(C(=O)OCc3ccccc3)C2)c1 (stereo not drawn) [Example 62, Benzyl 1-[(3-{[(3-methoxypyridin-2-yl)amino]carbonyl}phenyl)sulfonyl]piperidine-3-carboxylate]	93
CCOc1cccnc1NC(=O)c1cccc(S(=O)(=O)N2CCCC2)c1 [Example 113, N-(3-ethoxypyridin-2-yl)-3-(pyrrolidin-1-ylsulfonyl)benzamide]	400
COc1cccnc1NC(=O)c1cccc(S(=O)(=O)N2C3CCC2CC3)c1 [Example 52, 3-(7-Azabicyclo[2.2.1]hept-7-ylsulfonyl)-N-(3-methoxypyridin-2-yl)benzamide]	930
CCOc1cc(NC(=O)c2cccc(S(=O)(=O)c3ccccn3)c2)[nH]n1 [Example 117, N-(3-ethoxy-1H-pyrazol-5-yl)-3-(pyridin-2-ylsulfonyl)benzamide]	280
O=C(Nc1ccccc1)c1cccc(S(=O)(=O)N2CCCCC2)c1 [Example 88, N-phenyl-3-(piperidin-1-ylsulfonyl)benzamide]	2200
CC(C)Oc1ccc(NC(=O)c2cccc(S(=O)(=O)N3CCC(F)CC3)c2)cc1 [Example 15, 3-[(4-Fluoropiperidin-1-yl)sulfonyl]-N-(4-isopropoxyphenyl)benzamide]	120
CC(C)Oc1ccc(NC(=O)c2cccc(S(=O)(=O)c3ccccn3)c2)nc1Br [Example 129, N-(6-bromo-5-isopropoxypyridin-2-yl)-3-(pyridin-2-ylsulfonyl)benzamide]	4500
CC(C)c1ccc(NC(=O)c2cccc(S(=O)(=O)N3CCCCCC3)c2)cc1 [Example 27, 3-(Azepan-1-ylsulfonyl)-N-(4-isopropylphenyl)benzamide]	190
COc1cc(-c2ccccc2)cnc1NC(=O)c1cccc(S(=O)(=O)N2CCCC2)c1 [Example 109, N-(3-methoxy-5-phenylpyridin-2-yl)-3-(pyrrolidin-1-ylsulfonyl)benzamide]	3200
O=C(Nc1ccccc1Cl)c1cccc(S(=O)(=O)N2CCCCC2)c1 [Example 89, N-(2-chlorophenyl)-3-(piperidin-1-ylsulfonyl)benzamide]	1500
CC(C)Oc1ccc(NC(=O)c2cccc(S(=O)(=O)C3CCCCC3)c2)cc1 [Example 144, 3-(Cyclohexylsulfonyl)-N-(4-isopropoxyphenyl)benzamide]	74
COCC(C)Oc1ccc(NC(=O)c2cccc(S(=O)(=O)c3ccccn3)c2)c(F)c1 (stereo not drawn) [Example 123, N-[2-fluoro-4-(2-methoxy-1-methylethoxy)phenyl]-3-(pyridin-2-ylsulfonyl)benzamide]	2700
O=C(NCc1ccccc1)c1cccc(S(=O)(=O)N2CCCCC2)c1 [Example 73, N-benzyl-3-(piperidin-1-ylsulfonyl)benzamide]	5500
